Reference: article PMC6799938, “Determinants of drug entry into the developing brain” (F1000Research, 2019)
Like-named read-outs stand apart in the source and are kept apart here.

How the values were obtained:
[1] = Sprague Dawley, rat, in vivo
[2] = Entry of "passive" markers into brain and CSF
Procedure: (§1) Experimental procedure. In acute drug experiments, a single dose was injected that included traces of [ ^3H]-labelled drug (20µCi adults, 2µCi newborns). In chronic experiments, doses of unlabelled drug were given twice daily (09.00 and 17.00h) for four days before a final injection on the 5 ^th day identical to acute experiments. In passive marker experiments, all dosing was acute and contained only the [ ^3H]- or [ ^14C]-labelled compound (20µCi adults, 2µCi newborns).
(§2) In all experiments involving postnatal animals, injections were intraperitoneal (i.p.). In pregnant animals for fetal drug entry studies, the final injection of the radiolabelled marker was given intravenously (i.v.), as the peritoneal cavity required opening prior to the sampling period to gain access to the fetuses. For passive markers (L-glucose, sucrose and glycerol), fetal animals were individually injected i.p. while still within the uterine horn. All experiments took place between 09.00 and 15.00h. All pregnancy studies were completed with a single treatment group on one day. Postnatal groups were conducted with a single treatment group on one day or with the chronic group completed prior to the acute group.
(§3) Sample collection. Samples were collected 30 minutes after the final injection. This duration was chosen partly to limit any potential metabolism of the drugs and markers used but also to allow enough time for i.p. injected markers to reach the blood stream and, from there, to access the brain parenchyma across brain barriers, as well as to limit the CSF sink effect that could influence drug levels ( [Bito et al., 1966]). Thirty minutes is also within the half-life of these drugs ( [Adedoyin et al., 1987]; [Harrison & Gibaldi, 1976]; Lin & Levy, 1963). The other reason a 30-minute duration was chosen is that in the case of exposed fetal rat pups, it is difficult to maintain them in a reasonable physiological state for long periods due to deterioration of placental perfusion. Therefore, for comparative purposes, all studies were conducted at the same time.
For adult and newborn (P4) experiments, animals were terminally anaesthetized using inhaled isofluorane (IsoFlo 100% w/w, Abbott Laboratories). Blood samples were collected from the right cardiac ventricle, CSF from the cisterna magna (Habgood et al., 1992) and cortical segments of brain tissue dorsal to the ventricle of the frontal/parietal lobes, as previously described ( [Koehn et al., 2019]). Blood and CSF sampling from the P4 animals was terminal and would thus not have affected the physiological state of the animals during the experiment.
Sample preparation. Samples were processed immediately after collection. Blood was centrifuged at 7000rpm for five minutes and the plasma separated. CSF samples were examined microscopically for traces of red blood cells and discarded if contaminated (Habgood et al., 1992). In all experiments, the radioactivity in the injectate was also measured to confirm the uniformity of the injected material. All samples were weighed and transferred into scintillation vials. Soluene350 (0.5ml, PerkinElmer) was added to the brain samples. After being incubated at 36°C overnight to allow the tissue to solubilize, two drops of glacial acetic acid (Sigma) were added to neutralize the strongly alkaline Soluene350. All samples were then mixed with 5ml of scintillation fluid (Emulsifier-safe, PerkinElmer) before being transferred into the liquid scintillation counter (Tri-Carb 4910 TR, PerkinElmer) to count radioactivity disintegrations per minute (DPM) over five minutes each with luminescence correction on. Blank vials containing the same tissues without radioactivity were also counted alongside the samples to establish the level of background counts, which were always subtracted from the radioactivity counts of the corresponding experimental samples.
BrainorCSFtransfer=BrainorCSFDPM/μl/plasmaDPM/μl×100%

[3] = for Brain radioactivity level / CSF radioactivity level / Plasma radioactivity level: mean
Procedure: Animals. Sprague Dawley rats were supplied by the University of Melbourne Biological Research Facility and housed in groups of 2–4 (adult) or full litters per cage (25cm x 35cm x 25cm on Breeders Choice paper bedding, made from 99% recycled paper; it is biodegradable with no added chemicals), on a 12 h light/dark cycle with ad libitum access to food (dry pellets of a fixed formulation diet for laboratory rats and mice fortified with vitamins and minerals to meet the requirements of breeding animals after the diet is autoclaved or irradiated, supplied by Speciality Feeds, Western Australia) and water. Age groups investigated (at treatment completion) were time mated pregnant females at E19 (350-400g body weight), postnatal pups at P4 and non-pregnant female adults (175-230g body weight). E19 was chosen because this is a stage of development when adequate volumes of blood and CSF can be obtained for analysis from fetal rats without pooling ( [Dziegielewska et al., 1981]) and individual pups can be injected intraperitoneally while still inside the uterine horn and kept viable for periods of time. P4 was chosen because its stage of brain development is similar to that of very prematurely born but viable human infants of 22–24 weeks gestation ( [Clancy et al., 2001]). Animal numbers were based on previous experience of such experiments and were the minimum number required to detect a significant difference between groups at P <0.05.
Drug doses. Drug doses were selected based on use in clinical practice ( [Australian Medicines Handbook, 2019]) and adjusted for body weight.
as §1, §2, §3
For adult and newborn (P4) experiments, animals were terminally anaesthetized using inhaled isofluorane (IsoFlo 100% w/w, Abbott Laboratories).

[4] = passive marker, E19, 60-minute, separate experimentation
[5] = passive marker, E19, 30 minutes after i.p. injection
[6] = passive marker, P4, 30 minutes after i.p. injection
[7] = passive marker, adults, 30 minutes after i.p. injection
[8] = E19 fetuses, acute, 30 min - […] after administration
[9] = E19 fetuses, chronic (twice daily over five days), 30 min - […] after final dose
[10] = P4, chronic i.p. (twice daily over five days), 30 min after final dose
[11] = adult, chronic i.p. (twice daily over five days), 30 min after final dose

**Q.** For `C[C@H]1O[C@@H](O[C@H]2[C@@H](O)C[C@H](O[C@H]3[C@@H](O)C[C@H](O[C@H]4CC[C@@]5(C)[C@H](CC[C@@H]6[C@@H]5C[C@@H](O)[C@]5(C)[C@@H](C7=CC(=O)OC7)CC[C@]65O)C4)O[C@@H]3C)O[C@@H]2C)C[C@H](O)[C@@H]1O` [Digoxin], which “restriction of transfer by the placenta” value [1] is on record?
**A.** about 60%

**Q.** With `OCC(O)CO` [Glycerol] as the compound, how does the CSF concentration ratio [2, 4] read?
**A.** ~100%

**Q.** And the brain concentration ratio [2, 4]?
**A.** approximately 80%

**Q.** What about the Brain/Plasma Ratio [2, 5] of the same compound?
**A.** 46.8%

**Q.** And the CSF/Plasma Ratio [2, 5]?
**A.** 46.8%

**Q.** And the Brain/Plasma Ratio [2, 6]?
**A.** 82.2%

**Q.** And the CSF/Plasma Ratio [2, 6]?
**A.** 95%

**Q.** What about the Brain/Plasma Ratio [2, 7] of the same compound?
**A.** 85.5%

**Q.** And the CSF/Plasma Ratio [2, 7]?
**A.** 103.9%

**Q.** What about the “Fetal/Maternal plasma concentration ratio, range” value [1] of the same compound?
**A.** (68.1 - 134.7) %

**Q.** For `CC(=O)Nc1ccc(O)cc1` [Paracetamol], which “transfer from maternal blood to fetal brain” value ([3]; E19, acute) is on record?
**A.** 28%

**Q.** And the Brain radioactivity level [3, 8]?
**A.** 39.6 DPM/µg

**Q.** What about the CSF radioactivity level [3, 8] of the same compound?
**A.** 35.3 DPM/µl

**Q.** What about the Plasma radioactivity level [3, 8] of the same compound?
**A.** 57.8 DPM/µl

**Q.** What about the Brain radioactivity level [3, 9] of the same compound?
**A.** 146.1 DPM/µg

**Q.** And the CSF radioactivity level [3, 9]?
**A.** 119.0 DPM/µl

**Q.** And the Plasma radioactivity level [3, 9]?
**A.** 140.5 DPM/µl

**Q.** And the Brain radioactivity level ([3]; P4, acute i.p., 30 min)?
**A.** 117.5 DPM/µg

**Q.** And the CSF radioactivity level ([3]; P4, acute i.p., 30 min)?
**A.** 96.5 DPM/µl

**Q.** What about the Plasma radioactivity level ([3]; P4, acute i.p., 30 min) of the same compound?
**A.** 193.6 DPM/µl

**Q.** What about the Brain radioactivity level [3, 10] of the same compound?
**A.** 84.4 DPM/µg

**Q.** And the CSF radioactivity level [3, 10]?
**A.** 71.0 DPM/µl

**Q.** And the Plasma radioactivity level [3, 10]?
**A.** 166.8 DPM/µl

**Q.** And the “transfer into maternal brain (brain/maternal blood)” value ([3]; acute)?
**A.** 30%

**Q.** And the Brain radioactivity level ([3]; adult, acute i.p., 30 min)?
**A.** 27.3 DPM/µg

**Q.** And the CSF radioactivity level ([3]; adult, acute i.p., 30 min)?
**A.** 25.4 DPM/µl

**Q.** What about the Plasma radioactivity level ([3]; adult, acute i.p., 30 min) of the same compound?
**A.** 90.1 DPM/µl

**Q.** What about the Brain radioactivity level [3, 11] of the same compound?
**A.** 17.6 DPM/µg

**Q.** And the CSF radioactivity level [3, 11]?
**A.** 14.9 DPM/µl

**Q.** And the Plasma radioactivity level [3, 11]?
**A.** 83.3 DPM/µl

**Q.** And the “transfer into maternal brain (brain/maternal blood)” value ([3]; chronic (five days of twice-daily dosing))?
**A.** 21%

**Q.** For `OC[C@H]1O[C@@](CO)(O[C@H]2O[C@H](CO)[C@@H](O)[C@H](O)[C@H]2O)[C@@H](O)[C@@H]1O` [sucrose, Sucrose], which CSF/Plasma Ratio ([2]; rat, in vivo) is on record?
**A.** very low

**Q.** And the Brain/Plasma Ratio ([2]; rat, in vivo, 0.5 h)?
**A.** very low
